Where only a bound is given, the exact number is not on record here.

The text below walks through data of a melting point compilation (Tetko et al.; mined from patent text by program, amines drawn as free bases though some values may be those of a salt).

In the case of `CS(=O)(=O)c1ccc(C(CC2CCCC2)C(=O)Nc2nccs2)cc1NO` (stereo not drawn), the melting point (in general, the temperature of the solid-liquid transition) fell in the range of 124 to 126 °C.
The value for `CC(=O)Nc1c2c(cc3c1CCC3)CCC2` was 257 to 259 °C; that for `COC(=O)N[C@@H](C)CNc1nccc(-c2cn(C(C)C)nc2-c2cc(Cl)cc(NS(C)(=O)=O)c2F)n1` was 150 to 152 °C; that for `OCN1CCN=C1CC(c1ccccc1)c1ccccc1` was 161 to 163 °C.
In the case of `CCCCNC(=O)N1CC(Oc2ccc(C(F)(F)F)cc2)C1` it was 132 to 134 °C; in that of `Cc1cc(=O)c(O)c(C(C)O)o1` (stereo not drawn), 127 to 130 °C; in that of `CCOC(=O)C=CN1C(C)(C)CC(=O)CC1(C)C`, 145 °C.
In turn, `CO[C@@H](C(=O)N[C@H]1CC[C@@H](OC(=O)Cc2ccc(Cl)c(Cl)c2)CNC1=O)[C@H](O)[C@@H](O)[C@H](O)/C=C/C(C)(C)C` returned a melting point of 132 to 136 °C.
`Cc1cc(-c2cc(COS(C)(=O)=O)c(=O)n(CC=Cc3ccccc3)n2)ccc1F`: the melting point was in the range of 78.4 to 80.5 °C.
In the case of `COc1ccc(C(=O)N2c3ccccc3[C@H](N(C)c3ccccc3)C[C@@H]2C)cc1OC` (relative stereo) it was 180 to 181 °C; in that of `CC(C)n1cc(C(=O)C(F)(F)F)c2ccc(C(F)(F)F)cc21`, 92 to 93 °C.
In the case of `CCCCCCCCCCCC(=O)c1c[nH]c2ccccc12` it was 129 to 130 °C; in that of `Brc1ccc(-c2ccnc(-c3ccccc3)n2)cc1`, 107 °C; in that of `COC(=O)C(C(=O)OC)C(=O)C(C)Oc1ccc(Oc2ccc(C(F)(F)F)cc2)cc1` (stereo not drawn), 40 to 44 °C.
The value for `NCCCCC1Cc2ccc(C3=NNC(=O)CC3)cc2C1` (stereo not drawn) was 153 to 155 °C.
The molecule `CC(C)(C)c1cc(CCc2ccccc2NC(=O)NCCc2ccc([N+](=O)[O-])cc2)cc(C(C)(C)C)c1O` had a melting point of 134 to 136 °C.
The value for `COc1ccccc1N1CCN(CCCCN(C(N)=O)C(C)(C)C)CC1` was 167 to 169 °C; that for `CCCOc1ccc(F)cc1C(N)=O` was 114 to 116 °C; that for `COc1ccc(N2CCN(c3c(C)c4c(c(C(C)=O)c3C)OC(C)(C)C4)CC2)cc1` was 156 to 159 °C.
The value for `Cc1ccc(-c2cc(C(N)=O)c(N)s2)cc1` was 228 to 230 °C.
In the case of `COC(=O)c1cccc(-c2cc(CCN3CCCC3=O)c3cc(OC)ccc3c2)c1` it was 110 to 112 °C; in that of `CC12CCC(O)CC1=CCC1C2CCC2(C)C(n3ncnn3)=CCC12` (stereo not drawn), 195 to 198 °C.
Molecule `CC(C)(O)c1ccc2c(c1)SC(c1ccccc1)C(c1ccc3c(c1)NC(=O)CO3)=C2` (stereo not drawn) yielded a melting point of 241 to 245 °C.
The value for `Cc1[nH]c2ncnc(Nc3cccc(F)c3)c2c1C` was 245 to 255 °C; that for `Cc1nnc2n1-c1ccc(Br)cc1C(c1ccccc1F)=NC2NC(=O)OCc1ccccc1` (stereo not drawn) was 160 to 170 °C.
In the case of `C#CCC1CC2C(CCC3(C)C(=O)CCC23)C2CCC(=O)C=C12` (stereo not drawn) it was 186 to 188 °C; in that of `CCOC(=O)Cc1ccnc2c([N+](=O)[O-])cccc12`, 67 to 69 °C; in that of `O=C(O)CCCCc1nn(-c2ccccc2)c2c1CCC2`, 98 to 99 °C.
In the case of `CNC(C)CN1CCc2c(c(=O)oc3cc(OC)ccc23)C1` (stereo not drawn) it was 109 to 111 °C; in that of `Cn1nc2c(N)nc3ccccc3c2c1CCCCNS(C)(=O)=O`, 188 to 189 °C.
Take `COC(=O)C1=C(C)NC(C)=C(C(=O)OCC(C)C)C1c1cccc2nonc12` (stereo not drawn): the melting point was in the range of 148 to 158 °C.
Molecule `Cc1nn(-c2ccccc2)c(Nc2ccccc2)c1CC(=O)O` returned a melting point of 111 to 113 °C.
The value for `O[C@@H]1CCc2cc(F)c(F)cc2C1` was 88 to 92 °C.
The value for `CCOC(=O)COc1cccc(C(=O)Nc2ccccc2Sc2ccccc2-c2nnn[nH]2)c1` was 130 to 133 °C.
The value for `O=C(NOCC(O)CN1CCCCC1)c1cccc2ccccc12` (stereo not drawn) was 104 to 107 °C; that for `Brc1cncc(C2CCCCN2)c1` (stereo not drawn) was 97 to 97.5 °C; that for `C=Cc1ccc(OCc2ccccc2)cc1` was 68 to 69 °C.
Consider `CCc1nc2cc([N+](=O)[O-])ccc2o1`, for which the melting point lay within 88 to 90 °C.
The value for `CCOC(=O)c1c[nH]nc1NCc1ccc(OC)c(OC2CCCC2)c1` was 102 to 104 °C; that for `Nc1nc2c(OCCOc3nccnc3N3CCNCC3)cccc2o1` was 138 to 140 °C.
The value for `Cc1nc(Sc2cc(C(F)(F)F)ccn2)sc1CC(=O)O` was 122 to 123 °C; that for `CCOC(=O)CN(CC(=O)OCC)C(=O)c1cc(OCCCCCCOc2ccc(-c3ccccc3)cc2)ccc1OCc1ccccc1` was 60 to 62 °C; that for `CC(=O)c1cccc2c(=O)c(C)c(-c3ccccc3)oc12` was 159 to 161 °C.
In the case of `COc1ccc(CN2CCC(C(=O)NO)(S(=O)(=O)c3ccc(OC)cc3)CC2)cc1` it was 175 °C.
Regarding `CCOC(=O)Nc1cn2nc(OCc3cc(OC)ccc3OC)ccc2n1`, the melting point was in the range of 210 to 211 °C.
The value for `CCOC(=O)CCc1cn(Cc2ccc(OCc3cn4c(Cl)cccc4n3)cc2)nc1OCC` was 69 to 70 °C; that for `Cn1cc(-c2ccc(Cl)c(C(F)(F)F)c2)c(=O)c(C(F)(F)F)c1` was 164 to 165 °C.
The value for `CCCc1c(OCCCOc2ccc(C(=O)OCC)cc2)ccc(C(C)=O)c1O` was 86 to 87 °C; that for `COCCn1nc(C(=O)NCc2ccc(OC(C)(C)C(=O)O)c(C)c2)cc1-c1ccc(C(C)(C)C)cc1` was 65 °C; that for `Cc1nc2n(n1)C(N)(c1ccccc1)c1cc(Cl)ccc1-2` (stereo not drawn) was 173 to 175 °C.
In the case of `Cc1oc(-c2ccc(F)cc2)cc1COc1cccc(CSC(C)(C)C(=O)O)c1` it was 134 to 135 °C; in that of `COC(=O)c1ccc2c(=O)n(CC(C)C)c(CNC(=O)OC(C)(C)C)c(-c3cccc(F)c3)c2c1`, 206 to 208 °C.
Take `CC(C)SC(=O)CCS(=O)(=O)C(C)C`: the melting point fell in the range of 45 to 47 °C.
In the case of `N#CC(c1ccccc1)(c1ccccc1)[C@H]1CCCN(CCc2ccc3c(c2)CCC3)C1` it was 88 to 91 °C.
Take `O=[N+]([O-])c1cc(Cl)ccc1CBr`: the melting point fell in the range of 42 to 43 °C.
In the case of `Cc1ccc(Cl)c(-c2cc(=O)c3c(O)cc(O)c([C@@H]4CCN(C)[C@H]4CO)c3o2)c1`, the melting point is 206 to 208 °C.
In the case of `CCCCCCC(=O)Nc1ncnc(NC2CC2)n1` it was 195 to 197 °C; in that of `COc1ccc(-c2ccc(C)nc2-c2ccc(OCCN3CCCC3)cc2)cc1`, 63 to 64 °C; in that of `CCc1csc(CCc2ccc(NC(=O)/C=C/c3cnn(C)c3-c3ccc(F)cc3)cc2)n1`, 200 to 201 °C.
In the case of `COC(=O)c1ccc(NN=CC(F)(F)F)cc1S(=O)(=O)NC(=O)Nc1nc(OC)nc(OC)n1` it was 117 to 119 °C; in that of `COc1ccccc1-n1nc(-c2c(-c3ccccc3)nn3ccccc23)ccc1=O`, 163 °C.
The value for `CCOC(=O)c1ccc(-c2ccc(OCC(O)CO)c(-c3ccc4c(c3)C(C)(C)CCC4(C)C)c2)cc1` (stereo not drawn) was 56 °C.
Molecule `Clc1ccc(-c2nc(Cl)cc(Cl)n2)cc1` displayed a melting point of 120 to 121 °C.
In the case of `COc1ccc2oc(C(=O)c3cc(F)ccc3N3CCOCC3)cc2c1` it was 85 to 88 °C.
Regarding `COc1ccc(CCCc2nnc(-c3ccc4occc4c3)o2)cc1`, the melting point fell in the range of 116 to 117 °C.
In the case of `CCn1nc(C)c2nc(C)nc(NCCO)c21` it was 166 to 168 °C.
`COC(=O)CNc1cccc(I)c1`: the melting point was 83 °C.
The value for `COc1cc(OC)c2c(=O)[nH]c(-c3cc(-c4ccc(S(C)=O)cc4)cs3)nc2c1` (stereo not drawn) was above 300 °C; that for `CCNC(=O)n1nc(Oc2c(Cl)cc(C(F)(F)F)cc2Cl)c(Cl)c1C` was 85 to 86 °C; that for `Cc1cc(-c2cc(O)c(SCCc3ccccc3)c(=O)o2)ccc1OCc1ccccn1` was 75 to 77 °C.
In the case of `O=C(NC1CCOCC1)NC12CC3CC(CC(C3)C1)C2` it was 239 to 242 °C; in that of `CC(=O)NC1CCN(c2ccc(C#N)c3ccccc23)C1` (stereo not drawn), 154 to 155 °C; in that of `CC(C)Oc1c(CO)cnc2c(Cl)cccc12`, 88 to 89 °C.
In the case of `O=C(O)c1cc(Br)sc1Cl` it was 159 to 160 °C; in that of `CN1CCN(c2cc3c(cc2Cl)c(=O)c(C(=O)O)cn3C)CC1`, 286 °C.
`CC(=O)SCC(Cc1ccccc1)C(=O)Nc1ccc(N2CCCC2)c(C(=O)O)c1` (stereo not drawn): the melting point lay within 176 to 178 °C.
In the case of `COc1ccc2c(c1)cc(-c1nc(C)no1)n2-c1ccc(CNC(=O)C2(NC(=O)OC(C)(C)C)CC2)cc1` it was 212 to 214 °C; in that of `O=C(O)c1oc(-c2ccccc2)cc(=O)c1Cl`, 250 °C; in that of `Cn1cc(Nc2ccc([N+](=O)[O-])cc2[N+](=O)[O-])cn1`, 149 °C.
As to `Clc1nc(NCCCCC=C(c2ccccc2)c2ccccc2)c2nc[nH]c2n1`, the melting point fell in the range of 206 to 207 °C.
The value for `Cc1cccc(COc2cccc(OCc3ccc4ccc(Cl)cc4n3)c2)c1C(=O)O` was 188 to 193 °C; that for `CC(C)(C)c1cc(CCC(=O)NCCNc2c(Cl)c(Cl)nc(Cl)c2C#N)cc(C(C)(C)C)c1O` was 185 to 189 °C; that for `CCCOc1ccccc1-c1nc2nc(NCC(F)(F)F)ncc2c(=O)[nH]1` was 214 to 216 °C.
The value for `CN(C(=O)COc1ccccc1)c1ccc(OC23CC4CC(CC(C4)C2)C3)cc1` was 89 to 91 °C.
In the case of `CCCc1ccc(OCCC(C)C)c2c(=O)cc(C(=O)O)oc12` it was 64.5 to 65 °C; in that of `Cc1noc(C)c1-c1cc(OC2SCC(O)C(O)C2O)ccn1` (stereo not drawn), 143 to 147 °C; in that of `CC(NC(=O)OC(C)(C)C)C(=O)Nc1cc(CO)cc(Nc2c3ccccc3nc3ccccc23)c1` (stereo not drawn), 131 to 133 °C.
With `CN(CCOc1ccccc1C(N)=O)CCc1ccc([N+](=O)[O-])cc1`, the melting point fell in the range of 116 to 118 °C.
